Each compound was assayed on WT Mtb Erdman strain (assay: Microplate Alamar Blue Assay (MABA), Mtb growth inhibition). Details: Mycobacterium tuberculosis, ERDMAN, 168 h, Middlebrook 7H9 media, 7 days at 37° C. in 5% CO2.
Assay type: cell-based, Mycobacterium tuberculosis

Row | Structure (SMILES) | IC50 [µM]
1 | CCc1nc(NCCCc2cccc(N(C)C)c2)c2cc(C)sc2n1 [Example 253, N-(3-(3-(dimethylamino)phenyl)propyl)-2-ethyl-6-methylthieno[2,3-d]pyrimidin-4-amine] | 1.1
2 | CCc1nc(NCCCc2ccc3ncccc3c2)c2cc(C)sc2n1 [Example 254, 2-ethyl-6-methyl-N-(3-(quinolin-6-yl)propyl)thieno[2,3-d]pyrimidin-4-amine] | 1.5
3 | CCc1nc(NCCCc2cccc(OC(F)(F)F)c2)c2cc(C)sc2n1 [Example 255, 2-ethyl-6-methyl-N-(3-(3-(trifluoromethoxy)phenyl)propyl)thieno [2,3-d]pyrimidin-4-amine] | 0.57
4 | CCc1nc(NCCCc2ccc3c(c2)CCO3)c2cc(C)sc2n1 [Example 256, N-(3-(2,3-dihydrobenzofuran-5-yl)propyl)-2-ethyl-6-methylthieno[2,3-d]pyrimidin-4-amine] | 0.29
5 | CCc1nc(NCCCc2ccc(Cl)cc2)c2cc(C)sc2n1 [Example 257, N-(3-(4-chlorophenyl)propyl)-2-ethyl-6-methylthieno[2,3-d]pyrimidin-4-amine] | 0.14
6 | CCc1nc(NCCCc2ccc3ccccc3c2)c2cc(C)sc2n1 [Example 258, 2-ethyl-6-methyl-N-(3-(naphthalen-2-yl)propyl)thieno[2,3-d]pyrimidin-4-amine] | 0.19
7 | CCc1nc(NCCCc2cc(F)cc(C(F)(F)F)c2)c2cc(C)sc2n1 [Example 259, 2-ethyl-N-(3-(3-fluoro-5-(trifluoromethyl)phenyl)propyl)-6-methylthieno[2,3-d]pyrimidin-4-amine] | 0.56
8 | CCc1nc(NCCCc2ccc(OC)c(F)c2)c2cc(C)sc2n1 [Example 260, 2-ethyl-N-(3-(3-fluoro-4-methoxyphenyl)propyl)-6-methylthieno[2,3-d]pyrimidin-4-amine] | 0.2
9 | CCc1nc(NCCCc2cc3ccccc3s2)c2cc(C)sc2n1 [Example 261, N-(3-(benzo[b]thiophen-2-yl)propyl)-2-ethyl-6-methylthieno[2,3-d]pyrimidin-4-amine] | 0.28
10 | Cc1cc2c(NCCCc3ccc(-c4ccc(OC(F)(F)F)cc4)nc3)nc(C(F)(F)F)nc2s1 [Example 262, 6-methyl-N-(3-(6-(4-(trifluoromethoxy)phenyl)pyridin-3-yl)propyl)-2-(trifluoromethyl) thieno[2,3-d]pyrimidin-4-amine;] | 0.47
11 | Cc1cc2c(NCCCc3ccc(-c4ccc(OC(F)(F)F)cc4)cc3)nc(-c3ccon3)nc2s1 [Example 263, 2-(isoxazol-3-yl)-6-methyl-N-(3-(4′-(trifluoromethoxy)-[1,1′-biphenyl]-4-yl)propyl)thieno [2,3-d]pyrimidin-4-amine] | 0.013
12 | Cc1cc(-c2nc(NCCCc3ccc(-c4ccc(OC(F)(F)F)cc4)cc3)c3cc(C)sc3n2)no1 [Example 264, 6-methyl-2-(5-methylisoxazol-3-yl)-N-(3-(4′-(trifluoromethoxy)-[1,1′-biphenyl]-4-yl)propyl)thieno [2,3-d]pyrimidin-4-amine] | 0.04
13 | CCc1nc(NCCCc2ccc(-c3ccccc3)cc2)c2cc(C)sc2n1 [Example 265, N-(3-([1,1′-biphenyl]-4-yl)propyl)-2-ethyl-6-methylthieno[2,3-d]pyrimidin-4-amine] | 0.15
14 | CCc1nc(NCCCc2ccc(-c3ccc(OC(F)(F)F)cc3)cc2)c2cc(C)sc2n1 [Example 266, 2-ethyl-6-methyl-N-(3-(4′-(trifluoromethoxy)-[1,1′-biphenyl]-4-yl)propyl)thieno [2,3-d]pyrimidin-4-amine] | 0.049
15 | Cc1cc2c(NCCCc3ccc(-c4ccc(OC(F)(F)F)cc4)cc3)nc(C(F)(F)F)nc2s1 [Example 267, 6-methyl-N-(3-(4′-(trifluoromethoxy)-[1,1′-biphenyl]-4-yl)propyl)-2-(trifluoromethyl)-thieno[2,3-d]pyrimidin-4-amine] | 0.3
16 | Cc1cc2c(NCCCc3ccc(-c4ccccc4)cc3)nc(C(F)(F)F)nc2s1 [Example 268, N-(3-([1,1′-biphenyl]-4-yl)propyl)-6-methyl-2-(trifluoromethyl) thieno[2,3-d]pyrimidin-4-amine] | 1.2
17 | CCc1nc(NCCCc2cccc(-c3ccc(OC(F)(F)F)cc3)c2)c2cc(C)sc2n1 [Example 269, 2-ethyl-6-methyl-N-(3-(4′-(trifluoromethoxy)-[1,1′-biphenyl]-3-yl)propyl)thieno [2,3-d]pyrimidin-4-amine] | 1.1
18 | CCc1nc(NCCCc2cccc(-c3ccccc3)c2)c2cc(C)sc2n1 [Example 270, N-(3-([1,1′-biphenyl]-3-yl)propyl)-2-ethyl-6-methylthieno[2,3-d]pyrimidin-4-amine] | 0.52
19 | CCc1nc(NCCCc2ccc(-c3ccncc3)cc2)c2cc(C)sc2n1 [Example 271, 2-ethyl-6-methyl-N-(3-(4-(pyridin-4-yl)phenyl)propyl) thieno[2,3-d]pyrimidin-4-amine] | 0.35
20 | CCc1nc(NCCCc2ccc(-c3ccc(S(C)(=O)=O)cc3)cc2)c2cc(C)sc2n1 [Example 272, 2-ethyl-6-methyl-N-(3-(4′-(methylsulfonyl)-[1,1′-biphenyl]-4-yl)propyl)thieno [2,3-d]pyrimidin-4-amine] | 0.27
21 | CCc1nc(NCCCc2ccc(-c3ccc(Cl)cc3)cc2)c2cc(C)sc2n1 [Example 273, N-(3-(4′-chloro-[1,1′-biphenyl]-4-yl)propyl)-2-ethyl-6-methylthieno[2,3-d]pyrimidin-4-amine] | 0.038
22 | CCc1nc(NCCCc2ccc(-c3ccc(OC)cc3)cc2)c2cc(C)sc2n1 [Example 274, 2-ethyl-N-(3-(4′-methoxy-[1,1′-biphenyl]-4-yl)propyl)-6-methylthieno[2,3-d]pyrimidin-4-amine] | 0.076
23 | CCc1nc(NCCCc2ccc(-c3cccnc3)cc2)c2cc(C)sc2n1 [Example 275, 2-ethyl-6-methyl-N-(3-(4-(pyridin-3-yl)phenyl)propyl) thieno[2,3-d]pyrimidin-4-amine] | 0.18
24 | CCc1nc(NCCCc2ccc(-c3ccc(F)c(F)c3)cc2)c2cc(C)sc2n1 [Example 276, N-(3-(3′,4′-difluoro-[1,1′-biphenyl]-4-yl)propyl)-2-ethyl-6-methylthieno[2,3-d]pyrimidin-4-amine] | 0.93
25 | CCc1nc(NCCCc2ccc(-c3ccc(NS(C)(=O)=O)cc3)cc2)c2cc(C)sc2n1 [Example 277, N-(4′-(3-((2-ethyl-6-methylthieno[2,3-d]pyrimidin-4-yl)amino)propyl)-[1,1′-biphenyl]-4-yl)methanesul-fonamide] | 0.63
26 | CCc1nc(NCCCc2ccc(-c3ccc(=O)[nH]c3)cc2)c2cc(C)sc2n1 [Example 278, 5-(4-(3-((2-ethyl-6-methylthieno[2,3-d]pyrimidin-4-yl)amino)propyl)phenyl)pyridin-2(1H)-one] | 0.71
27 | CCc1nc(NCCCc2ccc(-c3ccc(NC(C)=O)cc3)cc2)c2cc(C)sc2n1 [Example 279, N-(4′-(3-((2-ethyl-6-methylthieno[2,3-d]pyrimidin-4-yl)amino)propyl)-[1,1′-biphenyl]-4-yl)acetamide] | 1.1
28 | CCc1nc(NCCCc2ccc(-c3cccc(OC(F)(F)F)c3)cc2)c2cc(C)sc2n1 [Example 280] | 0.14

From patent US20240279236A1, “COMPOUNDS AND METHODS OF TREATING TUBERCULOSIS” (Fimbrion Therapeutics, Inc., priority 2021, published 2024)
